In the supplement of paper PMC10627819:

Columns and labels:
Assay in all cases: Bliss interaction score (quartile over a dose matrix) (fitness difference); higher = more antagonism (negative = synergy)
B. subtilis 168 = tested on: B. subtilis 168
In short: (§1)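 Fitness was derived from optical density at entry into stationary phase, divided by the robust mean of the no-drug wells on the same plate. That reading was taken as OD595, and the ratio was capped at 1. Single-drug fitness was inferred from the combination data. The Bliss score, observed fitness minus the expected product of single-drug fitness, was summarised as quartiles over technical, biological and donor/recipient replicates.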

S. aureus Newman = tested on: S. aureus Newman
In short: as §1

S. aureus DSM 20231 = tested on: S. aureus DSM 20231
In short: as §1

S. pneumoniae D39V = tested on: S. pneumoniae D39V
In short: as §1
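Note: first quartile when negative (synergy) and third quartile when positive (antagonism).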

Compound	Bliss interaction score (B. subtilis 168)	Bliss interaction score (S. aureus Newman)	Bliss interaction score (S. aureus DSM 20231)	Bliss interaction score (S. pneumoniae D39V)	Bliss interaction score (B. subtilis 168; main component drawn)	Bliss interaction score (S. aureus Newman; main component drawn)	Bliss interaction score (S. aureus DSM 20231; main component drawn)	Bliss interaction score (S. pneumoniae D39V; main component drawn)
CC[C@H]1OC(=O)[C@H](C)[C@@H](O[C@H]2C[C@@](C)(OC)[C@@H](O)[C@H](C)O2)[C@H](C)[C@@H](O[C@@H]2O[C@H](C)C[C@H](N(C)C)[C@H]2O)[C@](C)(O)C[C@@H](C)C(=O)[C@H](C)[C@@H](O)[C@]1(C)O [Erythromycin] + C[C@H]1COc2c(N3CCN(C)CC3)c(F)cc3c(=O)c(C(=O)O)cn1c23 [Levofloxacin]	0.041	0.0478	0.0327	0.0979	–	–	–	–
CO[C@@H]1[C@@H](OC(N)=O)[C@@H](O)[C@H](Oc2ccc3c(O)c(NC(=O)c4ccc(O)c(CC=C(C)C)c4)c(=O)oc3c2C)OC1(C)C [Novobiocin] + C/C(=C\C(=O)OCCCCCCCCC(=O)O)C[C@@H]1OC[C@H](C[C@@H]2O[C@H]2[C@@H](C)[C@H](C)O)[C@@H](O)[C@H]1O [Pseudomonic acid]	-0.0516	-0.0166	-0.0173	0.241	–	–	–	–
CO[C@H]1/C=C/O[C@@]2(C)Oc3c(C)c(O)c4c(O)c(c(/C=N/N5CCN(C)CC5)c(O)c4c3C2=O)NC(=O)/C(C)=C\C=C\[C@H](C)[C@H](O)[C@@H](C)[C@@H](O)[C@@H](C)[C@H](OC(C)=O)[C@@H]1C [Rifampicin] + CC[C@H]1OC(=O)[C@H](C)C(=O)[C@H](C)[C@@H](O[C@@H]2O[C@H](C)C[C@H](N(C)C)[C@H]2O)[C@](C)(OC)C[C@@H](C)C(=O)[C@H](C)[C@H]2N(CCCCn3cnc(-c4cccnc4)c3)C(=O)O[C@]12C [Telithromycin]	0.0808	0.0171	0.0559	-0.157	–	–	–	–
CN[C@H](CC(C)C)C(=O)N[C@H]1C(=O)N[C@@H](CC(N)=O)C(=O)N[C@H]2C(=O)N[C@H]3C(=O)N[C@H](C(=O)N[C@H](C(=O)O)c4cc(O)cc(O)c4-c4cc3ccc4O)[C@H](O[C@H]3C[C@](C)(N)[C@@H](O)[C@H](C)O3)c3ccc(c(Cl)c3)Oc3cc2cc(c3O[C@@H]2O[C@H](CO)[C@@H](O)[C@H](O)[C@H]2O[C@H]2C[C@](C)(NCc3ccc(-c4ccc(Cl)cc4)cc3)[C@@H](O)[C@H](C)O2)Oc2ccc(cc2Cl)[C@H]1O [Oritavancin] + CN[C@@H]1[C@H](O)[C@H](NC)[C@H]2O[C@@]3(O)C(=O)C[C@@H](C)O[C@H]3O[C@@H]2[C@H]1O [Spectinomycin]	-0.0238	-0.154	-0.0487	0.0219	–	–	–	–
CN[C@H](CC(C)C)C(=O)N[C@H]1C(=O)N[C@@H](CC(N)=O)C(=O)N[C@H]2C(=O)N[C@H]3C(=O)N[C@H](C(=O)N[C@H](C(=O)O)c4cc(O)cc(O)c4-c4cc3ccc4O)[C@H](O[C@H]3C[C@](C)(N)[C@@H](O)[C@H](C)O3)c3ccc(c(Cl)c3)Oc3cc2cc(c3O[C@@H]2O[C@H](CO)[C@@H](O)[C@H](O)[C@H]2O[C@H]2C[C@](C)(NCc3ccc(-c4ccc(Cl)cc4)cc3)[C@@H](O)[C@H](C)O2)Oc2ccc(cc2Cl)[C@H]1O [Oritavancin] + CO[C@H]1/C=C/O[C@@]2(C)Oc3c(C)c(O)c4c(O)c(c(/C=N/N5CCN(C)CC5)c(O)c4c3C2=O)NC(=O)/C(C)=C\C=C\[C@H](C)[C@H](O)[C@@H](C)[C@@H](O)[C@@H](C)[C@H](OC(C)=O)[C@@H]1C [Rifampicin]	-0.0184	0.0357	-0.0199	0.106	–	–	–	–
CC(=O)NC[C@H]1CN(c2ccc(N3CCOCC3)c(F)c2)C(=O)O1 [Linezolid] + CO[C@@]12[C@H](COC(N)=O)C3=C(C(=O)C(C)=C(N)C3=O)N1C[C@@H]1N[C@@H]12 [MitomycinC]	0.0314	0.0823	-0.068	-0.0668	–	–	–	–
CC[C@H](C)[C@H](N)C1=N[C@H](C(=O)N[C@@H](CC(C)C)C(=O)N[C@H](CCC(=O)O)C(=O)N[C@H](C(=O)N[C@H]2CCCCNC(=O)[C@H](CC(N)=O)NC(=O)[C@@H](CC(=O)O)NC(=O)[C@H](Cc3cnc[nH]3)NC(=O)[C@@H](Cc3ccccc3)NC(=O)[C@H]([C@@H](C)CC)NC(=O)[C@@H](CCCN)NC2=O)[C@@H](C)CC)CS1 [Bacitracin] + N[C@@H]1CONC1=O [CycloserineD]	–	–	–	–	0.0719	0.0872	-0.0841	0.118
